Assay results published in paper PMC7440915, “Discovery of surrogate agonists for visceral fat Treg cells that modulate metabolic indices in vivo” (eLife, 2020).
Where no end group is shown, it is not given here.

Tested on: vTreg53 Treg cells
Assay: Proliferation of transferred vTreg53 Treg cells in spleen after immunization
Type: in vivo, mouse
Conditions: CFA/Fat1562, 200 µg s.c., three days
Excerpt: Figure 4. SPs induce proliferation and activation of vTreg53 Treg cells in vitro and in vivo. (A–D) Proliferation and activation of vTreg53 Treg cells by different concentrations of SPs for 3 days in vitro (n = 3). (A) Representative flow cytometric plot of cell division. (B) Summary of cell proliferation. (C) Mean flourescence intensity (MFI) of CD44 staining in clonotype^+ Treg cells. (D) MFI of CD62L staining in clonotype^+ Treg cells. (E) Proliferation of transferred CD45.2^+ vTreg53 Treg cells in the spleen of CD45.1^+ B6 recipient mice immunized s.c. with CFA or CFA/Fat1562 at day 3 (n = 3). […]
To assess early Treg proliferation following peptide stimulation in vivo, 0.4 million Treg cells were sorted from pooled Spl and LNs of 6-8wk-old male CD45.2^+ Tg^+ Foxp3-GFP^KI/y mice by Moflo, labeled by the CellTrace Violet dye (ThermoFisher Scientific), and were i.v.-injected into 6-8wk old male B6.CD45.1^+ mice. […] Proliferation of clonotype^+ Tregs in the spleen was determined three days later. […] Six weeks later, the recipient mice were immunized with 200 µg CFA/peptides s.c. on the lower back, and one week later were boosted with 100 μg IFA/peptides i.p. After another week, clonotype^+ CD45.2^+ Treg cells from the Spl/LNs or VAT of recipient mice were analyzed by flow cytometry and double-sorted for ultra-low-input RNA-seq. […]

Sequence: TMYKNPRPMAATG [Fat1562]
- proliferation of transferred clonotype^+ Treg cells in spleen: robust proliferation
